{
  "source": "paper PMC8474119",
  "about": "“Discovery and SAR Evolution of Pyrazole Azabicyclo[3.2.1]octane Sulfonamides as a Novel Class of Non-Covalent N-Acylethanolamine-Hydrolyzing Acid Amidase (NAAA) Inhibitors for Oral Administration” (Journal of Medicinal Chemistry, 2021)",
  "key": {"[1]": {"molecular_target": "T1, human acid ceramidase (AC) (Homo sapiens, UniProt Q13510)", "T1 construct": "made in house; host or cells: HEK-293 cells stably overexpressing human AC; enzyme-enriched lysate", "T1 sequence (Q13510 143-395 limits assumed)": "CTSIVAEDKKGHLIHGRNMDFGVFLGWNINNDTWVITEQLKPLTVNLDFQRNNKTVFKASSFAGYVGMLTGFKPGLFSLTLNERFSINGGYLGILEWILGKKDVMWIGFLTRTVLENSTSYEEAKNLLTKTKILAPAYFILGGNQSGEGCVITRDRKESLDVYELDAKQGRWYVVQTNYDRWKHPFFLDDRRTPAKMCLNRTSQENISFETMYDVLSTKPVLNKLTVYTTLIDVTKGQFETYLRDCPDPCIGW", "T1 sequence (Q13510 22-142 limits assumed)": "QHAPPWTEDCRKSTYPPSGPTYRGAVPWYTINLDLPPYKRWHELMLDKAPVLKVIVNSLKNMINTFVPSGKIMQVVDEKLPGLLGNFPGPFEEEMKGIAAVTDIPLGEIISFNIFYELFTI", "assay": "Fluorogenic human-AC assay", "assay_type": "biochemical", "description": "(§1) Human recombinant proteins were obtained from HEK-293 stable overexpressing human NAAA, AC, and FAAH-1 cell lines, respectively. Cells were grown in Dulbecco’s modified Eagle medium (DMEM) containing 10% FBS, 1% glutamine, 1 mM sodium pyruvate, and 500 μg/mL geneticin (G418). To obtain a high-density cell proliferation, h-NAAA-HEK-293 cells were grown in BelloCell-500 bottle, a compact bioreactor. On the contrary, h-AC and h-FAAH-1-HEK-293 cells were grown in 150 mm dishes and scraped off with cold PBS 1× pH 7.4 at 80% confluence. Cell pellets were collected and stored at −80 °C until protein preparation.\nHEK-293 cells stably transfected with the human NAAA or human AC coding sequences were used as the enzyme source. […] The suspension was finally centrifuged at 105,000g for 1 h at 4 °C, supernatants were collected, protein concentration was measured, and samples were aliquoted and stored at −80 °C until use.\nThe assay was performed in Optiplate 96-wells black plates (PerkinElmer, Massachusetts, USA) in a total reaction volume of 250 μL. h-AC protein (2 μg) was preincubated for 10 min with various concentrations of test compounds or vehicle control (DMSO 5%) in 25 mM sodium acetate buffer (pH 4.5). […] Fluorescence was measured with the EnVision 2014 Multilabel Reader (PerkinElmer, Massachusetts, USA) at an excitation/emission wavelength of 355/460 nm. […]"}, "human FAAH": {"molecular_target": "T2, human FAAH (Homo sapiens, UniProt O00519)", "T2 construct": "made in house; host or cells: HEK-293 cells stably overexpressing human FAAH-1; membrane-enriched lysate", "T2 sequence (O00519 1-579)": "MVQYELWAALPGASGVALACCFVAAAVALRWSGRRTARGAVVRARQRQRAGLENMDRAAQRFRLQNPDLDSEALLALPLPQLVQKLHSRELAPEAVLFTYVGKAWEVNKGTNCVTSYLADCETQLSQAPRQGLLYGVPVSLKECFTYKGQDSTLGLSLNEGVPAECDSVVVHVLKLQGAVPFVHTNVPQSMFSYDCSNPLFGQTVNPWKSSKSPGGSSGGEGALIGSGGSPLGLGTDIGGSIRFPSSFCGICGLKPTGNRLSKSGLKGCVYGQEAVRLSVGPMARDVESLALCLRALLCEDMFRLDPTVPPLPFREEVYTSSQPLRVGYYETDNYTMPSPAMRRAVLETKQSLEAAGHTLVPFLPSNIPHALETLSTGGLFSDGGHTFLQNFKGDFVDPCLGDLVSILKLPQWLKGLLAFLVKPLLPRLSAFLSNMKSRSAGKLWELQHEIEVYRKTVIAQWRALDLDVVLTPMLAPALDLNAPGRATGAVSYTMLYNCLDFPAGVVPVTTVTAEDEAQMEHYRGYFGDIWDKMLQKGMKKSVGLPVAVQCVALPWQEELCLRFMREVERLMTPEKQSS", "assay": "Fluorogenic human-FAAH-1 assay", "assay_type": "biochemical", "description": "as §1\nCell pellets, obtained by centrifugation at 300g for 7 min at 4 °C, were resuspended in 20 mM Tris-HCl pH 7.4, 0.32 M sucrose, disrupted by sonication (10 pulses, 5 times), and centrifuged (1000g, 10 min, 4 °C). […] Membrane pellets were resuspended in PBS to obtain h-FAAH-1 preparation; the protein concentration was measured by the Bradford Protein Assay (BioRad) and samples were aliquoted and stored at −80 °C until use.\nThe fluorescence assay to measure FAAH activity was performed in 96-well black plates (Black OptiPlate-96 F; PerkinElmer, Massachusetts, USA): 2.5 μg of human FAAH-1 membrane preparation was preincubated for 50 min at 37 °C, in 190 μL of assay buffer (50 mM Tris-HCl pH 7.4, 0.05% Fatty acid-free BSA) with 5 μL of inhibitor or 5 μL DMSO to measure FAAH total activity. […]"}},
  "data": [
    {"smiles": "CCOCc1cnc(O[C@H]2C[C@H]3CC[C@@H](C2)N3S(=O)(=O)c2c(C)n[nH]c2C)cn1", "note": "[Compound 50, (1R,3r,5S)-8-((3,5-Dimethyl-1H-pyrazol-4-yl)sulfonyl)-3-((5-(ethoxymethyl)pyrazin-2-yl)oxy)-8-azabicyclo[3.2.1]octane]", "values": [
      {"measurement": "inhibition at 30 µM", "setting": "[1]", "value": 34, "unit": "%"},
      {"measurement": "inhibition at 30 µM", "setting": "human FAAH", "value": 25, "unit": "%"}
    ]}
  ]
}
